Patent US8859541B2, “6-alkynylpyridines” (Boehringer Ingelheim International GmbH, priority 2012, dated 2014)

How the values were obtained:
XIAP BIR3 = biological target: T1, XIAP BIR3 (Homo sapiens, UniProt P98170); assay: XIAP BIR3 binding assay (DELFIA), displacement of SMAC peptide; details: GST-fusion BIR3 domain (aa 241 to 356) 10 nM, SMAC peptide 10 nM; activity of the (S)-isomers
T1 construct: covering amino acids 241 to 356; XIAP BIR3; made in house; host or cells: E. coli
Summary of the method: (§1)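 Each BIR3 domain (10 nM) incubated with biotinylated N-terminal SMAC peptide (10 nM) and compound for 1 h at room temp in Tris/NaCl buffer with BSA, DTT and Triton X-100. Captured on streptavidin plates; bound BIR3 detected by Eu-labelled anti-GST time-resolved fluorescence, giving IC50 values.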

cIAP1 BIR3 = biological target: T2, cIAP1 BIR3 (Homo sapiens, UniProt Q13490); assay: cIAP1 BIR3 binding assay (DELFIA), displacement of SMAC peptide; details: GST-fusion BIR3 domain (aa 256 to 363) 10 nM, SMAC peptide 10 nM; activity of the (S)-isomers
T2 construct: covering amino acids 256 to 363; cIAP1 BIR3; made in house; host or cells: E. coli
Summary of the method: as §1

T1 sequence (P98170 241-356): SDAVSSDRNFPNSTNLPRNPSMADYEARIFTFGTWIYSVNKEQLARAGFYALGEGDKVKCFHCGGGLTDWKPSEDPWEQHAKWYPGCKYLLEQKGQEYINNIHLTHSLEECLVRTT
T2 sequence (Q13490 256-363): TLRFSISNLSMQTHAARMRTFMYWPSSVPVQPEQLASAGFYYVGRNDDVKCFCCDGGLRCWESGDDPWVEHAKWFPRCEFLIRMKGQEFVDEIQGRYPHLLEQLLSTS

Question: Which IC50 (XIAP BIR3) does the source give for `CNC(C)C(=O)Nc1ccc(-c2c(C)nc3cc(F)ccn23)c(C#Cc2ccc3ncccc3c2)n1` (centres unmarked) [Example 47, N-[5-(7-fluoro-2-methyl-imidazo[1,2-a]pyridin-3-yl)-6-(2-quinolin-6-ylethynyl)pyridin-2-yl]-2-(methylamino)propan-amide] here?
Answer: The IC50 was 180 nM.

Question: What about the IC50 (cIAP1 BIR3) of the same compound?
Answer: The IC50 was 1 nM.
